Data reported in the kinase profiling compilation of Christmann-Franck et al. (2016).

Tests used:
Experiment in all cases: KINOMEscan competition binding
Conditions in all cases: compound 10.0 µM
RAF1 (human) = RAF1 (human) (UniProt P04049)
STK33 (human) = STK33 (human) (UniProt Q9BYT3)
STK4 (human) = STK4 (human) (UniProt Q13043)
IRAK3 (human) = IRAK3 (human) (UniProt Q9Y616)
STK3 (human) = STK3 (human) (UniProt Q13188)
CDKL2 (human) = CDKL2 (human) (UniProt Q92772)
CDK11B (human) = CDK11B (human) (UniProt P21127)
RET (human) = RET (human) (UniProt P07949)
MAP3K4 (human) = MAP3K4 (human) (UniProt Q9Y6R4)
MERTK (human) = MERTK (human) (UniProt Q12866)
CSNK1D (human) = CSNK1D (human) (UniProt P48730)
DAPK3 (human) = DAPK3 (human) (UniProt O43293)
MAPKAPK2 (human) = MAPKAPK2 (human) (UniProt P49137)
STK35 (human) = STK35 (human) (UniProt Q8TDR2)
SYK (human) = SYK (human) (UniProt P43405)
PRKX (human) = PRKX (human) (UniProt P51817)
RIOK1 (human) = RIOK1 (human) (UniProt Q9BRS2)
[1] = system: FLT3 (human), P36888 [N841I]
CDC42BPB (human) = CDC42BPB (human) (UniProt Q9Y5S2)
CDK18 (human) = CDK18 (human) (UniProt Q07002)
CLK4 (human) = CLK4 (human) (UniProt Q9HAZ1)
PAK1 (human) = PAK1 (human) (UniProt Q13153)
MAPK11 (human) = MAPK11 (human) (UniProt Q15759)
CDK8 (human) = CDK8 (human) (UniProt P49336)
CHUK (human) = CHUK (human) (UniProt O15111)
CDK16 (human) = CDK16 (human) (UniProt Q00536)
EPHA1 (human) = EPHA1 (human) (UniProt P21709)
CDK15 (human) = CDK15 (human) (UniProt Q96Q40)
SRC (human) = SRC (human) (UniProt P12931)
GSK3B (human) = GSK3B (human) (UniProt P49841)
PDGFRA (human) = PDGFRA (human) (UniProt P16234)
PIM1 (human) = PIM1 (human) (UniProt P11309)
PIK3CD (human) = PIK3CD (human) (UniProt O00329)
PRKD2 (human) = PRKD2 (human) (UniProt Q9BZL6)
TYRO3 (human) = TYRO3 (human) (UniProt Q06418)
RPS6KA2 KD1 (human) = RPS6KA2 KD1 (human) (UniProt Q15349)
CAMKK1 (human) = CAMKK1 (human) (UniProt Q8N5S9)
STK10 (human) = STK10 (human) (UniProt O94804)
MKNK1 (human) = MKNK1 (human) (UniProt Q9BUB5)
LIMK1 (human) = LIMK1 (human) (UniProt P53667)

Chain of STK10 (human) (O94804 whole entry, looked up): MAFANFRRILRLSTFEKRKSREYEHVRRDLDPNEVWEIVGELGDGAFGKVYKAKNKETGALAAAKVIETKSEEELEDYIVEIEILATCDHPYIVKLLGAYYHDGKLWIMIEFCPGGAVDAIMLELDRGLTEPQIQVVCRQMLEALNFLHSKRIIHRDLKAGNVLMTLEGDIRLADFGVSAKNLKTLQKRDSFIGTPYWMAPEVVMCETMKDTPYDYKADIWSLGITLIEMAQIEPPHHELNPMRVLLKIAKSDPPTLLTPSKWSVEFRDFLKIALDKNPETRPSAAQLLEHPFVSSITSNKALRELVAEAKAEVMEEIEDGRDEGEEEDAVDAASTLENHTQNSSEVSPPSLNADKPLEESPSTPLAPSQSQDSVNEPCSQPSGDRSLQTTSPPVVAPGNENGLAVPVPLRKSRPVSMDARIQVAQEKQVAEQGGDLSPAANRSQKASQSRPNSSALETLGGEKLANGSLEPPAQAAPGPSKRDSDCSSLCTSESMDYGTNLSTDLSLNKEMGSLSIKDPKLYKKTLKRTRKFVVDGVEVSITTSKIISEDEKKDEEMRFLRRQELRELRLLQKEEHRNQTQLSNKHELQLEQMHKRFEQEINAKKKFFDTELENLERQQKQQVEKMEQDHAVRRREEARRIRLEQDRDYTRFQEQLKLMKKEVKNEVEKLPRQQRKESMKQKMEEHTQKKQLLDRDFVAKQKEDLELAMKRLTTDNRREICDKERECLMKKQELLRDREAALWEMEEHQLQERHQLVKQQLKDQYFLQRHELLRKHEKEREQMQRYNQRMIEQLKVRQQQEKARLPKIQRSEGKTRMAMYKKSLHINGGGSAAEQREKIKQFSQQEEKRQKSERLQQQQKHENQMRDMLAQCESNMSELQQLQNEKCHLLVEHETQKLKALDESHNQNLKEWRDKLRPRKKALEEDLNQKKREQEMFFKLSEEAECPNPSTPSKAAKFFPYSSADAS
Chain of MAP3K4 (human) (Q9Y6R4 whole entry, looked up): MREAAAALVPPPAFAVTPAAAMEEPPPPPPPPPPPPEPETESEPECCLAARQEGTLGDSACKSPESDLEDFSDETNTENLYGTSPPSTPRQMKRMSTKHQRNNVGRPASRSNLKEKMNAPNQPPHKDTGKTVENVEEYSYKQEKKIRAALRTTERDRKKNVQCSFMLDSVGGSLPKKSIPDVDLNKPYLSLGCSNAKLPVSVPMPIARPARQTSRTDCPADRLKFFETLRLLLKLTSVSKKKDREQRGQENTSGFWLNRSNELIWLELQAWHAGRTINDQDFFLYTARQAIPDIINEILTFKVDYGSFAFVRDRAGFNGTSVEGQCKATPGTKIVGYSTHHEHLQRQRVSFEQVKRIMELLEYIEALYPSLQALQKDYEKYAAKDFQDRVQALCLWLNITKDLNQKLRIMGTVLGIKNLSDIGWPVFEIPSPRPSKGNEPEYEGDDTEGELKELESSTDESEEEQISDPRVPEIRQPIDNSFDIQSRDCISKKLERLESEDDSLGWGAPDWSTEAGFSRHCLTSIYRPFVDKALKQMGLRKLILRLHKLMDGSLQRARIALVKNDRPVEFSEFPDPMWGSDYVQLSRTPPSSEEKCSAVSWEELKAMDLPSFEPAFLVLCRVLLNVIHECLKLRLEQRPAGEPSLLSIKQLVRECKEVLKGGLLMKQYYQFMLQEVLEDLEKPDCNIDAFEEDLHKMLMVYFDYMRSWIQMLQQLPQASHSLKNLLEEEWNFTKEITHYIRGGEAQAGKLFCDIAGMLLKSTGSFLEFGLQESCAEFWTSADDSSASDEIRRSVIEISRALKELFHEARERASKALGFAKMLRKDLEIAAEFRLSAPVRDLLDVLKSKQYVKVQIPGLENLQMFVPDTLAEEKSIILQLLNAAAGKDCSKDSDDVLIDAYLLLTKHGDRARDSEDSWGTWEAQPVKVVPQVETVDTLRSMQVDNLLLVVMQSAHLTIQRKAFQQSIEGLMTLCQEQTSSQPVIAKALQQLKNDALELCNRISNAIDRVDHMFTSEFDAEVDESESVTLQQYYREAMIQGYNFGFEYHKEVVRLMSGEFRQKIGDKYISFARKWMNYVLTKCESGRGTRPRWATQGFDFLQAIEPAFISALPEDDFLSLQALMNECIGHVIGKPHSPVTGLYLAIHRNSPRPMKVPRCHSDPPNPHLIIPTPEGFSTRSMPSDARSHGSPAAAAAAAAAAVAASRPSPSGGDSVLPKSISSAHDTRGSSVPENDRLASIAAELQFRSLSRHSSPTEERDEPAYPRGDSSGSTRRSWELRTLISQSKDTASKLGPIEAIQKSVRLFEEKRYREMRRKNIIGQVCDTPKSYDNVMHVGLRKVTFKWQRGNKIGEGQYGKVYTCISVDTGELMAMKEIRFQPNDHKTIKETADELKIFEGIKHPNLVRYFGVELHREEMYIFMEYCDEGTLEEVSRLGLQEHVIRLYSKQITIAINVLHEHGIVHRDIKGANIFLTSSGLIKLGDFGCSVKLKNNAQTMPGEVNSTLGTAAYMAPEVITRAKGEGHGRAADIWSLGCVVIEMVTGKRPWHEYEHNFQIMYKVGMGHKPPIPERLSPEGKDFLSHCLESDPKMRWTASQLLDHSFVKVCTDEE
Chain of MAPKAPK2 (human) (P49137 whole entry, looked up): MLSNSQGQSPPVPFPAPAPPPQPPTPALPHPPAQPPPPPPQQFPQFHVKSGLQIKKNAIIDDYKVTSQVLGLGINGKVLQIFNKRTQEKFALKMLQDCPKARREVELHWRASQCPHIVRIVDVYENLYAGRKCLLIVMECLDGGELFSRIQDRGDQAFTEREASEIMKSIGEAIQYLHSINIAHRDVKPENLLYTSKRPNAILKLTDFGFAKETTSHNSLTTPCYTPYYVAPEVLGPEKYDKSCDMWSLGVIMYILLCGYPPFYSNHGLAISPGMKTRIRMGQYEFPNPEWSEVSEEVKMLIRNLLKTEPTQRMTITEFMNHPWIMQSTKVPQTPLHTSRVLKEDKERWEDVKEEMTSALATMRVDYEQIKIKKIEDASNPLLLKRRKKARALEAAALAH
Chain of MAPK11 (human) (Q15759 whole entry, looked up): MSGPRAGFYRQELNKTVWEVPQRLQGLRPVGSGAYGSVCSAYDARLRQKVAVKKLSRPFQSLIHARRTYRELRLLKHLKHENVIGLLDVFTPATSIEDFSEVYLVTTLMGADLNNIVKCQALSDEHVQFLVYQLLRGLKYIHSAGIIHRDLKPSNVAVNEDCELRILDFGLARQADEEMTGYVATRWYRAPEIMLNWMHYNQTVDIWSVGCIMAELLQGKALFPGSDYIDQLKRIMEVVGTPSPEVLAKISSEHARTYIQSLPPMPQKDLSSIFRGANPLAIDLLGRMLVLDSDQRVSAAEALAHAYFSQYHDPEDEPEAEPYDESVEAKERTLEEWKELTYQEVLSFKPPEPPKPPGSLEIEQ
Chain of CDKL2 (human) (Q92772 whole entry, looked up): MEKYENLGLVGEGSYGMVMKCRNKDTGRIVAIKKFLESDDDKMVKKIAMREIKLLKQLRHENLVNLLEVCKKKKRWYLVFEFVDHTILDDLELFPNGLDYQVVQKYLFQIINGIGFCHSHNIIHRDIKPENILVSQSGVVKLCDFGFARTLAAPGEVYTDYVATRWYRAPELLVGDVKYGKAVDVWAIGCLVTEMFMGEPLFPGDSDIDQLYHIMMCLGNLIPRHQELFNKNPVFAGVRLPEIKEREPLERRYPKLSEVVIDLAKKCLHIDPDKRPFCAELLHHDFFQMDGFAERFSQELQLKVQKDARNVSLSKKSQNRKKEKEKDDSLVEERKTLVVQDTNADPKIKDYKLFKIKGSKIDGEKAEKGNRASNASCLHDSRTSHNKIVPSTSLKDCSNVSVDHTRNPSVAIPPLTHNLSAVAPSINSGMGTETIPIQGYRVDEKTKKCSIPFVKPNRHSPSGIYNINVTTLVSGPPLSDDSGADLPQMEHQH
Chain of CDK8 (human) (P49336 whole entry, looked up): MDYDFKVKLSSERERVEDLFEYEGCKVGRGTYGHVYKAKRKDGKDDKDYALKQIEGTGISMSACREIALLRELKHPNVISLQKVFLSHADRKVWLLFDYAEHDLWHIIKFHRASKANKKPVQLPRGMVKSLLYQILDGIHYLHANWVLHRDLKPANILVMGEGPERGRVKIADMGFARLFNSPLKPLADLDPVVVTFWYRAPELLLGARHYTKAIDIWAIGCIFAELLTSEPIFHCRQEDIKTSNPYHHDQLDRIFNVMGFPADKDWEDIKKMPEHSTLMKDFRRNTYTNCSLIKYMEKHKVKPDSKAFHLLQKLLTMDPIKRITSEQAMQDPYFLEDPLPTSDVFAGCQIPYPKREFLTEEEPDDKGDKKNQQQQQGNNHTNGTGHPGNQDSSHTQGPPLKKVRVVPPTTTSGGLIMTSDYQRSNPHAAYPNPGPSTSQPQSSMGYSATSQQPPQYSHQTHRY
Chain of DAPK3 (human) (O43293 whole entry, looked up): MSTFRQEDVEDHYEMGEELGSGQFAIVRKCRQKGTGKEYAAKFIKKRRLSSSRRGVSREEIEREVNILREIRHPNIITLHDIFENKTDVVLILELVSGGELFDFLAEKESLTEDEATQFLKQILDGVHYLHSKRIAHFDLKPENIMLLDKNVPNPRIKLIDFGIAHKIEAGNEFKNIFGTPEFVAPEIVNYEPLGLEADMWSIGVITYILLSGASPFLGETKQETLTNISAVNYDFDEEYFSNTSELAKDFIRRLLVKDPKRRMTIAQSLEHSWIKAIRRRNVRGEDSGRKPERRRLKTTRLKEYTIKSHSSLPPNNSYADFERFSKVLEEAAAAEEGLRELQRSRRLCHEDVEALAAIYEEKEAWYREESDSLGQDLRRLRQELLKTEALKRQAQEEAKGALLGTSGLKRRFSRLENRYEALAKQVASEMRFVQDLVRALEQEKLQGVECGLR

Compound	kinase still bound, per cent of control (RAF1 (human)) [%]	kinase still bound, per cent of control (STK33 (human)) [%]	kinase still bound, per cent of control (STK4 (human)) [%]	kinase still bound, per cent of control (IRAK3 (human)) [%]	kinase still bound, per cent of control (STK3 (human)) [%]	kinase still bound, per cent of control (CDKL2 (human)) [%]	kinase still bound, per cent of control (CDK11B (human)) [%]	kinase still bound, per cent of control (RET (human)) [%]	kinase still bound, per cent of control (MAP3K4 (human)) [%]	kinase still bound, per cent of control (MERTK (human)) [%]	kinase still bound, per cent of control (CSNK1D (human)) [%]	kinase still bound, per cent of control (DAPK3 (human)) [%]	kinase still bound, per cent of control (MAPKAPK2 (human)) [%]	kinase still bound, per cent of control (STK35 (human)) [%]	kinase still bound, per cent of control (SYK (human)) [%]	kinase still bound, per cent of control (PRKX (human)) [%]	kinase still bound, per cent of control (RIOK1 (human)) [%]	kinase still bound, per cent of control [1] [%]	kinase still bound, per cent of control (CDC42BPB (human)) [%]	kinase still bound, per cent of control (CDK18 (human)) [%]	further results
Nc1ccc(-c2ccc3ncc4ccc(=O)n(-c5cccc(C(F)(F)F)c5)c4c3c2)cn1	100	100	100	42	63	91	100	100	100	87	63	81	100	92	100	100	65	11	96	100	kinase still bound, per cent of control (CLK4 (human)): 34%; kinase still bound, per cent of control (PAK1 (human)): 95%; kinase still bound, per cent of control (MAPK11 (human)): 83%; kinase still bound, per cent of control (CDK8 (human)): 100%; kinase still bound, per cent of control (CHUK (human)): 55%; kinase still bound, per cent of control (CDK16 (human)): 98%; kinase still bound, per cent of control (EPHA1 (human)): 93%; kinase still bound, per cent of control (CDK15 (human)): 94%; kinase still bound, per cent of control (SRC (human)): 100%; kinase still bound, per cent of control (GSK3B (human)): 100%; kinase still bound, per cent of control (PDGFRA (human)): 62%; kinase still bound, per cent of control (PIM1 (human)): 92%; kinase still bound, per cent of control (PIK3CD (human)): 14%; kinase still bound, per cent of control (PRKD2 (human)): 100%; kinase still bound, per cent of control (TYRO3 (human)): 100%; kinase still bound, per cent of control (RPS6KA2 KD1 (human)): 100%; kinase still bound, per cent of control (CAMKK1 (human)): 94%; kinase still bound, per cent of control (STK10 (human)): 100%; kinase still bound, per cent of control (MKNK1 (human)): 43%; kinase still bound, per cent of control (LIMK1 (human)): 100%
COc1cc(C(=O)NC2CCN(C)CC2)ccc1Nc1ncc2c(n1)N(C1CCCC1)C(C)CC(=O)N2C (stereo not given)	100	3.6	100	100	100	100	100	100	100	100	100	17	100	100	100	100	100	100	100	100	kinase still bound, per cent of control (CLK4 (human)): 100%; kinase still bound, per cent of control (PAK1 (human)): 100%; kinase still bound, per cent of control (MAPK11 (human)): 100%; kinase still bound, per cent of control (CDK8 (human)): 100%; kinase still bound, per cent of control (CHUK (human)): 100%; kinase still bound, per cent of control (CDK16 (human)): 100%; kinase still bound, per cent of control (EPHA1 (human)): 100%; kinase still bound, per cent of control (CDK15 (human)): 100%; kinase still bound, per cent of control (SRC (human)): 100%; kinase still bound, per cent of control (GSK3B (human)): 100%; kinase still bound, per cent of control (PDGFRA (human)): 100%; kinase still bound, per cent of control (PIM1 (human)): 100%; kinase still bound, per cent of control (PIK3CD (human)): 100%; kinase still bound, per cent of control (PRKD2 (human)): 100%; kinase still bound, per cent of control (TYRO3 (human)): 100%; kinase still bound, per cent of control (RPS6KA2 KD1 (human)): 100%; kinase still bound, per cent of control (CAMKK1 (human)): 100%; kinase still bound, per cent of control (STK10 (human)): 29%; kinase still bound, per cent of control (MKNK1 (human)): 100%; kinase still bound, per cent of control (LIMK1 (human)): 100%
COc1cc(N2CCN(C)CC2)ccc1Nc1nc(N)c(C(=O)c2c(Cl)cccc2Cl)s1	100	83	100	90	85	93	5.3	97	100	87	100	78	100	100	59	93	100	47	100	78	kinase still bound, per cent of control (CLK4 (human)): 50%; kinase still bound, per cent of control (PAK1 (human)): 91%; kinase still bound, per cent of control (MAPK11 (human)): 77%; kinase still bound, per cent of control (CDK8 (human)): 100%; kinase still bound, per cent of control (CHUK (human)): 58%; kinase still bound, per cent of control (CDK16 (human)): 62%; kinase still bound, per cent of control (EPHA1 (human)): 100%; kinase still bound, per cent of control (CDK15 (human)): 26%; kinase still bound, per cent of control (SRC (human)): 100%; kinase still bound, per cent of control (GSK3B (human)): 100%; kinase still bound, per cent of control (PDGFRA (human)): 84%; kinase still bound, per cent of control (PIM1 (human)): 100%; kinase still bound, per cent of control (PIK3CD (human)): 98%; kinase still bound, per cent of control (PRKD2 (human)): 78%; kinase still bound, per cent of control (TYRO3 (human)): 100%; kinase still bound, per cent of control (RPS6KA2 KD1 (human)): 84%; kinase still bound, per cent of control (CAMKK1 (human)): 6.3%; kinase still bound, per cent of control (STK10 (human)): 40%; kinase still bound, per cent of control (MKNK1 (human)): 51%; kinase still bound, per cent of control (LIMK1 (human)): 74%
